Values of other authors as cited in patent US20080167477A1, “NOVEL POLYMORPHIC FORMS OF […] AND PROCESS FOR PREPARING THE SAME” (MATRIX LABORATORIES LIMITED, priority 2007, published 2008).

Details: compared to the free base of carvedilol; disclosed in WO 2004/002419

SMILES: COc1ccccc1OCCNCC(O)COc1cccc2[nH]c3ccccc3c12.O=P(O)(O)O (stereo not shown) [carvedilol dihydrogen phosphate]
- solubility: higher solubility when compared to the free base of carvedilol
